Source: patent publication US20220264878A1, “HERBICIDAL COMPOSITION CONTAINING R-TYPE PYRIDYLOXY CARBOXYLIC ACID DERIVATIVE AND USE THEREOF” (Qingdao Kingagroot Chemical Compound Co., Ltd., priority 2019, published 2022)
Like-named read-outs stand apart in the source and are kept apart here.

How the values were obtained:
Assay type in all cases: in vivo
Sinapis arvensis = assay: Post-emergence foliage spray, pot culture, fresh weight inhibition (Tables 151-206; 20 days)
Method in brief: (§1)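 Field-collected weeds grown in pots in a greenhouse (20-30° C., natural light, 57-72% RH), 15 per pot, 3 pots × 4 replicates. Single foliar spray at 4-5 leaves (grasses) or 5-6 leaves (broadleaf) with acetone/0.1% Tween-80 dilutions at 450 kg/ha, 0.3 MPa. Above-ground fresh weight inhibition versus solvent blank at 20 days.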

Digitaria sanguinalis = assay: as above; settings: Digitaria sanguinalis, 480 h, read-out: Control effect (%) of A applied alone in corresponding dose
Method in brief: as §1

Eleusine indica = assay: as above
Method in brief: as §1

Alopecurus japonicus = assay: as above
Method in brief: as §1

Capsella bursa-pastoris = assay: as above; settings: Capsella bursa-pastoris, 480 h, read-out: Control effect (%) of A applied alone in corresponding dose
Method in brief: (§2)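 Pre-germinated seeds (25° C soak 6 h, 28° C dark) grown in pots, thinned to 15 per pot; foliage-sprayed at 4~5-leaf (grasses) or 5~6-leaf (broadleaf) stage, 450 kg/ha spray volume, 0.3 MPa. Agents in acetone diluted with 0.1% Tween-80 water; solvent blank control. Above-ground fresh weight weighed, dead weeds scored zero.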

Amaranthus retroflexus = assay: as above
Method in brief: as §2

Veronica didyma = assay: as above; settings: 20 days after treatment
Method in brief: as §1

Conyza Canadensis [1] = assay: as above; settings: 20 days after treatment
Method in brief: as §1

Conyza Canadensis [2] = assay: Post-emergence foliage spray on Conyza Canadensis with a height of 10 cm, fresh weight inhibition (Tables 207-216; 24 days); settings: 24 days after treatment
Description: The above weeds were cultivated by a pot culture method. […] Full and uniform weed seeds were selected, soaked in warm water at 25° C. for 6 hours, and germinated in a 28° C. biochemical incubator (darkness). The weed seeds that had just germinatedwere evenly placed on the surface of the soil and then covered with 0.5-1 cm soil according to the sizes of seeds.
The technical materials were all dissolved in acetone, and diluted with an aqueous solution containing 0.1% emulsifier Tween-80. The dilution is performed as required.
A ratio of the active ingredient A to the active ingredient B and amounts thereof in each group depends on the characteristics and toxicity of the two agents, as well as the main application purpose of a corresponding formulation. Based on the pre-tests in this study, the dosage of the active ingredient A and B applied alone and in combination were shown in the tables. Water containing the solvent and emulsifier same with the above groups but free of the agents was used as a blank control.
In the stage of weeds with 6˜8 leaves, the weeds were thinned out to maintain 3 weeds per pot and 30 weeds for each treatment, then continued to be cultured to Conyza Canadensis with a height of 10 cm, and treated.
The well-cultured weeds were evenly placed on a platform with an area of 0.5 m^2, and a solution of agents was sprayed on the stems and leaves thereof by the 3WP-2000-type walking spray tower at a dosage of 450 kg/ha and at a spray pressure of 0.3 MPa. After all the solution was sprayed, the valve was closed. After 30 seconds, the door of the spray tower was opened, and the nutritional bowl was taken out. Then the valve was opened, and the spray tube was cleaned by spraying 50 ml of water.
A pot-culture method was employed. For the cultivation of weeds, please refer to the Section 1.1), and “Pesticide guidelines for laboratory bioactivity tests—herbicides”. As to a method for applying agents, please refer to the section 2.3.2), that is, a foliage treatment was employed. After the treatment, the weeds were routinely cultured in a greenhouse.
A method for investigating absolute number was employed, wherein whole seedlings of survival weeds were cut off with a blade along the soil surface, and the fresh weight of the weeds was weighed with an analytical balance. For dead weeds, the fresh weight thereof was zero.
Wherein, in the formula, X represented the fresh weight inhibition rate of the active ingredient A in a dosage of P, and Y represented the fresh weight inhibition rate of the active ingredient B in a dosage of Q.

[3] = A alone 75 g a.i./ha, 20 days after treatment
[4] = A alone 150 g a.i./ha, 20 days after treatment

With `C[C@@H](Oc1nc(F)c(Cl)c(N)c1Cl)C(=O)O` [Compound A1] the “Control effect (%) of A applied alone in corresponding dose” value (“Control effect (%) of A applied alone” for short) (Sinapis arvensis; A 75 g a.i./ha, 20 days) was 50.4%, the “Control effect (%) of A applied alone” value (Sinapis arvensis; A 150 g a.i./ha, 20 days) was 79.9% and the pest or weed control at 75 g/ha (Digitaria sanguinalis; A 75 g a.i./ha, 20 days) was 25.9%. The pest or weed control at 150 g/ha (Digitaria sanguinalis; A 150 g a.i./ha, 20 days) was 69.1%, the “Control effect (%) of A applied alone” value (Eleusine indica; A 75 g a.i./ha, 20 days) was 46.9% and the “Control effect (%) of A applied alone” value (Eleusine indica; A 150 g a.i./ha, 20 days) was 81.2%. The “Control effect (%) of A applied alone” value (Alopecurus japonicus; A 75 g a.i./ha, 20 days) was 31.3%, the “Control effect (%) of A applied alone” value (Alopecurus japonicus; A 150 g a.i./ha, 20 days) was 57.6% and the pest or weed control at 75 g/ha (Capsella bursa-pastoris; A 75 g a.i./ha, 20 days) was 56.5%. For the same molecule, the pest or weed control at 150 g/ha (Capsella bursa-pastoris; A 150 g a.i./ha, 20 days) was 82.4%, the “Control effect (%) of A applied alone” value (Amaranthus retroflexus; A 75 g a.i./ha, 20 days) was 35.4% and the “Control effect (%) of A applied alone” value (Amaranthus retroflexus; A 150 g a.i./ha, 20 days) was 71.7%.
For `C[C@@H](Oc1nc(F)c(Cl)c(N)c1Cl)C(=O)OCC1CCCO1` (stereo partly drawn) [Compound A2], the “Control effect (%) of A applied alone” value (Veronica didyma; A alone 75 g a.i./ha) was 19.7%, the “Control effect (%) of A applied alone” value (Veronica didyma; A alone 150 g a.i./ha) was 36.6% and the “Control effect (%) of A applied alone” value (Sinapis arvensis; [3]) was 37.9%. For the same molecule, the “Control effect (%) of A applied alone” value (Sinapis arvensis; [4]) was 60.4%, the pest or weed control at 75 g/ha (Digitaria sanguinalis; [3]) was 19.4% and the pest or weed control at 150 g/ha (Digitaria sanguinalis; [4]) was 51.6%. The “Control effect (%) of A applied alone” value (Conyza Canadensis [1]; A alone 75 g a.i./ha) was 38.1%, the “Control effect (%) of A applied alone” value (Conyza Canadensis [1]; A alone 150 g a.i./ha) was 54.4% and the “Control effect (%) of A applied alone” value (Eleusine indica; [3]) was 35.7%. The “Control effect (%) of A applied alone” value (Eleusine indica; [4]) was 63.3%, the “Control effect (%) of A applied alone” value (Alopecurus japonicus; [3]) was 24.4% and the “Control effect (%) of A applied alone” value (Alopecurus japonicus; [4]) was 44.5%. For the same molecule, the “Control effect (%) of A applied alone” value (Conyza Canadensis [2]; A alone 60 g a.i./ha) was 22.6%, the “Control effect (%) of A applied alone” value (Conyza Canadensis [2]; A alone 120 g a.i./ha) was 47.9% and the pest or weed control at 75 g/ha (Capsella bursa-pastoris; [3]) was 44.2%. The pest or weed control at 150 g/ha (Capsella bursa-pastoris; [4]) was 65%, the “Control effect (%) of A applied alone” value (Amaranthus retroflexus; [3]) was 25.7% and the “Control effect (%) of A applied alone” value (Amaranthus retroflexus; [4]) was 51.8%.
